Three compounds from patent publication US20250064762A1, “A SUBSTITUTED AROMATIC DICARBONIC ACID AMIDE AS AN INHIBITOR OF THE FERROPTOSIS SUPPRESSOR PROTEIN-1 (FSP1)” (JULIUS-MAXIMILIANS-UNIVERSITÄT WÜRZBURG, priority 2021, published 2025) can be followed below.

One test has as its system HT1080 cells. The test can be described thus: Lipid droplet staining with BODIPY 493/503. In kind it is cell-based, human. The conditions noted are these: CPBA 100 μM; T863 10 μM and PF-06424439 5 μM; 16 h. The protocol:
HT1080 cells were seeded on glass coverslips (15,000 cells per well of 12-well plate) in complete DMEM, and incubated for 16 h with 100 μM CPBA or with 0.1% of the DMSO solvent control, in the absence or presence of inhibitors of DGAT1 and DGAT2 (10 μM T863/iDGAT1; 5 μM PF-06424439/iDGAT2). Cells were fixed with 4% para-formaldehyde, lipid droplets were stained with the neutral lipid droplet stain BODIPY 493/503 (2 μM, 30 min), and nuclei were counterstained with 4′,6-diamidino-2-phenylindole (DAPI). Cells were mounted with Immu-Mount (Fisher Scientific), and imaged by fluorescence microscopy on a THUNDER imager (THUNDER Imager Live Cell & 3D Cell Culture & 3D Assay system, Leica DMI8; Leica Microsystems), using a 63× objective.
We next investigated the impact of CPBA on triglyceride levels and ferroptosis sensitivity by first imaging lipid droplets with the neutral lipid stain BODIPY 493/503.
The diglyceride acyltransferase isoforms 1 and 2 (DGAT1, DGAT2) are required to catalyze the formation of triglycerides from diacylglycerol and acyl-CoA.

Test [1] has as its system GPX4-KO/FSP1-OE HT1080 cells. The test can be described thus: Viability of FSP1-dependent GPX4-KO cells with serial dilutions of CPBA, no FINs. In kind it is cell-based, human. The conditions noted are these: GPX4-KO, FSP1-dependent cells treated with CPBA. The protocol: The following HT1080 fibrosarcoma cell lines were generated using CRISPR/Cas9 technology, as previously described (Doll et al., 2019): HT1080 GPX4-knockout (KO) cells (maintained in the presence of 100 μM α-tocopherol); HT1080 GPX4 knockout cells overexpressing FSP1 (GPX4-KO/FSP1-OE); GPX4-KO cells overexpressing FSP1 and re-expressing GPX4 (GPX4-KO/FSP1-OE/GPX4-OE); HT1080 FSP1-WT or FSP1-KO cells; and HT1080 FSP1-KO cells reconstituted with either FSP1-WT or FSP1-G2A. LOX-IMVI (BRAF V600E heterozygous human melanoma cells) expressing either the Venus mock vector or FSP1-Venus (Doll et al., 2019) were grown in RPMI-1640 supplemented with 10% FCS, 2 mM L-glutamine and Pen/Strep.
Next, we tested the effect of CPBA on ferroptotic cell death in GPX4-deficient HT1080 cells whose survival depends on the expression of FSP1 in order to suppress ferroptosis in the absence of GPX4. GPX4 knockout cells overexpressing FSP1 (GPX4-KO/FSP1-OE), or GPX4-KO cells overexpressing FSP1 and re-expressing GPX4 (GPX4-KO/FSP1-OE/GPX4-OE) were incubated with serial dilutions of CPBA. Note that no ferroptosis inducers (FINs) were added. Protein expression was confirmed by Western Blot as described above (see FIG. 11).

As for `CS(=O)(=O)O.O=C([C@@H]1CCCN(c2ccc3[nH]c(C4(n5cc(Cl)cn5)CC4)nc3n2)C1)N1CCCC1` [PF-06424439], in the test with HT1080 cells, the lipid droplets result was “blocked lipid droplet formation both in DMSO- and in CPBA-treated cells”.
As to `CC1(C)Oc2ncnc(N)c2N=C1c1ccc([C@H]2CC[C@H](CC(=O)O)CC2)cc1` [T863], the lipid droplets result in the test on HT1080 cells was “blocked lipid droplet formation both in DMSO- and in CPBA-treated cells”.
`Clc1cccc(CN=C2Nc3ccccc3NC23CCNCC3)c1` [liproxstatin-1, reference compound]: the “prevention of CPBA-induced cell death” value in test [1] is reported as “cell death is prevented by liproxstatin-1”.
